The term inhibition denotes the change of the read-out against control, counted positive when it falls. Usually IC50 stands for the concentration that inhibits the measured activity by half. By Kd is commonly meant the free concentration of one partner at which half of the binding sites on the other are occupied at equilibrium, for simple one-to-one binding.

Results on one compound are retold here after ChEMBL document CHEMBL4325844, “Development of 2-amino-4-phenylthiazole analogues to disrupt myeloid differentiation factor 88 and prevent inflammatory responses in acute lung injury” (Eur J Med Chem, 2019).

Experiment [1] concerns Mus musculus. As to the kind of experiment: Antiinflammatory activity in LPS-induced C57/BL6 mouse model of acute lung injury assessed as reduction in IL6 level in BALF at 10 mg/kg, ip pretreated for 30 mins followed by LPS challenge measured after 6 hrs by ELISA. In kind it is functional, organism-based.
In experiment [2] the test system is Peritoneal macrophage. As to the kind of experiment: Antiinflammatory activity in ICR mouse primary peritoneal macrophages assessed as inhibition of LPS-induced IL-6 production at 20 uM preincubated for 60 mins followed by LPS stimulation and measured after 24 hrs by ELISA relative to control. In kind it is functional. For orientation: In an ELISA, binding on a coated surface is turned into a signal by an enzyme label.

Experiment [3] deals with Mus musculus. The experiment in a line: Antiinflammatory activity in LPS-induced C57/BL6 mouse model of acute lung injury assessed as reduction in IL6 level in serum at 10 mg/kg, ip pretreated for 30 mins followed by LPS challenge measured after 6 hrs by ELISA. In kind it is functional, organism-based.
Experiment [4] deals with Mus musculus. The experiment in a line: Antiinflammatory activity in LPS-induced C57/BL6 mouse model of acute lung injury assessed as reduction in lung wet/dry ratio at 10 mg/kg, ip pretreated for 30 mins followed by LPS challenge measured after 6 hrs. In kind it is functional, organism-based.
Experiment [5] deals with Peritoneal macrophage. As to the kind of experiment: Antiinflammatory activity in ICR mouse primary peritoneal macrophages assessed as inhibition of LPS-induced TNFalpha production preincubated for 2 hrs followed by LPS stimulation and measured after 22 hrs by ELISA. In kind it is functional, cell-based.
The target of experiment [6] is Myeloid differentiation primary response protein MyD88 (Mus musculus) (UniProt P22366). As to the kind of experiment: Inhibition of MyD88 in ICR mouse primary peritoneal macrophages assessed as reduction in LPS-induced JNK phosphorylation at 20 uM preincubated for 30 mins followed by LPS-stimulation and measured after 20 mins by Western blot analysis.
Experiment [7] relates to Mus musculus. The experiment in a line: Antiinflammatory activity in LPS-induced C57/BL6 mouse model of acute lung injury assessed as reduction in TNFalpha level in BALF at 10 mg/kg, ip pretreated for 30 mins followed by LPS challenge measured after 6 hrs by ELISA. In kind it is functional, organism-based.
The target of experiment [8] is T1, Myeloid differentiation primary response protein MyD88 (Homo sapiens, UniProt Q99836). The experiment in a line: Binding affinity to recombinant human MyD88 TIR domain (157 to 296 residues) expressed in Escherichia coli BL21(DE3) by surface plasmon resonance analysis. A general note: Surface plasmon resonance follows binding to a sensor surface in real time, without labels.

The target in experiment [9] is Myeloid differentiation primary response protein MyD88 (Mus musculus) (UniProt P22366). The experiment in a line: Inhibition of MyD88 in ICR mouse primary peritoneal macrophages assessed as reduction in LPS-induced p38 MAPK phosphorylation at 20 uM preincubated for 30 mins followed by LPS-stimulation and measured after 20 mins by Western blot analysis. In general terms: A western blot detects proteins with antibodies after separation by electrophoresis.

Experiment [10] concerns Peritoneal macrophage. The experiment in a line: Antiinflammatory activity in ICR mouse primary peritoneal macrophages assessed as inhibition of LPS-induced IL-6 production preincubated for 2 hrs followed by LPS stimulation and measured after 22 hrs by ELISA. In kind it is functional, cell-based.
Experiment [11] has as its system Mus musculus. The experiment in a line: Antiinflammatory activity in LPS-induced C57/BL6 mouse model of acute lung injury assessed as reduction in TNFalpha level in serum at 10 mg/kg, ip pretreated for 30 mins followed by LPS challenge measured after 6 hrs by ELISA. In kind it is functional, organism-based.
Experiment [12] concerns the target Myeloid differentiation primary response protein MyD88 (Mus musculus) (UniProt P22366). The experiment in a line: Inhibition of MyD88 in ICR mouse primary peritoneal macrophages assessed as reduction in LPS-induced ERK phosphorylation at 20 uM preincubated for 30 mins followed by LPS-stimulation and measured after 20 mins by Western blot analysis.
The test system of experiment [13] is Peritoneal macrophage. The experiment in a line: Antiinflammatory activity in ICR mouse primary peritoneal macrophages assessed as inhibition of LPS-induced TNFalpha production at 20 uM preincubated for 60 mins followed by LPS stimulation and measured after 24 hrs by ELISA relative to control. In kind it is functional.
Experiment [14] has as its target T1, Myeloid differentiation primary response protein MyD88. As to the kind of experiment: Inhibition of LPS-induced HA-tagged MyD88 (unknown origin) interaction with FLAG-tagged MyD88 (unknown origin) expressed in HEK293 cells at 20 uM after 48 hrs by co-immunoprecipitation method. In kind it is cell-based.

SMILES strings stand for the structures. Active and inactive are the calls of the source. The calls are words filed in the database; no cut-off is given here.

T1 sequence (Q99836 whole entry, the tested form may be a part): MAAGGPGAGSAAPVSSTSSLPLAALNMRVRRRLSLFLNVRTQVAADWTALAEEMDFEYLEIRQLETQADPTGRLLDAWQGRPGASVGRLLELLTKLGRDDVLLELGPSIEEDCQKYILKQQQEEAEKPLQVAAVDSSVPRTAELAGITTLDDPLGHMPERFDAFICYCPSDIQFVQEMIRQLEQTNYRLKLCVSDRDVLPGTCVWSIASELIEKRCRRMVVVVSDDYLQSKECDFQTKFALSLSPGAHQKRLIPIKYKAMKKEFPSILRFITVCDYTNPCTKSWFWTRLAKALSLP
Chain of Myeloid differentiation primary response protein MyD88 (Mus musculus) (P22366 whole entry): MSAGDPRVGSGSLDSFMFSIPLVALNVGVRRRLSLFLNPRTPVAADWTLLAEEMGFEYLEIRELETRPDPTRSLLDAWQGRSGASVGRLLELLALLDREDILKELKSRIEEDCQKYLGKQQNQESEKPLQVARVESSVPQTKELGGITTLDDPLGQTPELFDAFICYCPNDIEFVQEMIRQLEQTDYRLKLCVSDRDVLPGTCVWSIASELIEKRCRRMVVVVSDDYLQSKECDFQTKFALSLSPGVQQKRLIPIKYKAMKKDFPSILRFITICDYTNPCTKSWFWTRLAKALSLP

With `O=C(CCN1CCN(Cc2ccccc2)CC1)Nc1nc(-c2ccccc2)cs1`, the result in experiment [1], in experiment [3], in experiment [4], in [7] and in experiment [11] was Active. Also, the inhibition at 20 µM in [2] was 69.3%; in experiment [13], 47%. In addition, the results for the IC50 in [5] and in experiment [10] were 11.9 µM and 10.2 µM, respectively. Further, the inhibition entry in experiment [6], in [9], in experiment [12] and in [14] was “Active” throughout. Also, the Ka in [8] was determined as 3340 M⁻¹ s⁻¹. In experiment [8], the dissociation constant Kd amounted to 180 µM. Moreover, the Kdiss in experiment [8] came out at 0.6 s⁻¹.
